# Results taken from ChEMBL document CHEMBL1130573, “Anti-AIDS agents-XXVIII.1 Synthesis and Anti-HIV activity of methoxy substituted 3,4-Di-O-()-camphanoyl-(+)-cis-khellactone (DCK) analogues” (Bioorg Med Chem Lett, 1997).
# What was measured:
# H9 [1] = experiment: Inhibitory activity against gorwth of uninfected H9 cell growth by 50%; format: functional, cell-based; conditions: Homo sapiens
# [2] = Therapeutic index is the ratio of IC50 of compound to that of EC50; conditions: read-out: Therapeutic index
# H9 [3] = experiment: Anti-HIV activity was evaluated for the concentration that inhibits viral replication by 50%; format: functional, cell-based; conditions: Homo sapiens
SMILES,EC50 (H9 [3]) [nM],IC50 (H9 [1]) [nM],selectivity ratio [2]
COc1cc(=O)oc2c3c(ccc12)OC(C)(C)[C@H](OC(=O)C12CCC(C)(C(=O)O1)C2(C)C)[C@@H]3OC(=O)C12CCC(C)(C(=O)O1)C2(C)C (stereo partly specified),2.76,> 153000,> 51000
COc1cc2ccc(=O)oc2c2c1OC(C)(C)[C@H](OC(=O)C13CCC(C)(C(=O)O1)C3(C)C)[C@@H]2OC(=O)C12CCC(C)(C(=O)O1)C2(C)C (stereo partly specified),24500,> 153000,> 9.68
COc1cc2ccc3c(c2oc1=O)[C@@H](OC(=O)C12CCC(C)(C(=O)O1)C2(C)C)[C@@H](OC(=O)C12CCC(C)(C(=O)O1)C2(C)C)C(C)(C)O3 (stereo partly specified),6,> 153000,> 25500
Cc1cn([C@H]2C[C@H](N=[N+]=[N-])[C@@H](CO)O2)c(=O)[nH]c1=O [ZIDOVUDINE],45,–,–

# Now those with a lower EC50 (H9 [3]), led by results:
EC50 (H9 [3]) [nM],SMILES,IC50 (H9 [1]) [nM],selectivity ratio [2]
0.256,CC1(C)Oc2ccc3ccc(=O)oc3c2[C@@H](OC(=O)C23CCC(C)(C(=O)O2)C3(C)C)[C@H]1OC(=O)C12CCC(C)(C(=O)O1)C2(C)C (stereo partly specified),35000,137000
0.138,COc1cc2c(c3oc(=O)ccc13)[C@@H](OC(=O)C13CCC(C)(C(=O)O1)C3(C)C)[C@@H](OC(=O)C13CCC(C)(C(=O)O1)C3(C)C)C(C)(C)O2 (stereo partly specified),> 153000,> 403000
